# Reference: patent US6737383B1, “Herbicidal oxadiazolidines” (priority 1999, dated 2004)
# Key:
# blackgrass = assay: Test B pre/postemergence blackgrass; format: in vivo, Alopecurus myosuroides
# Procedure, shortened: (§1)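 Herbicidal effect was estimated by eye on a ten-point control scale after plants spent twelve to sixteen days in a greenhouse following soil or foliar treatment. Foliar sprays targeted plants at one to four leaves; all doses were formulated in a non-phytotoxic solvent with surfactant.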
# surinam grass = assay: Test B pre/postemergence surinam grass; format: in vivo, Brachiaria decumbens
# Procedure, shortened: as §1
# corn = assay: Test B pre/postemergence corn; format: in vivo, Zea mays
# Procedure, shortened: as §1
# crabgrass = assay: Test B pre/postemergence crabgrass; format: in vivo, Digitaria sanguinalis
# Procedure, shortened: as §1
# giant foxtail = assay: Test B pre/postemergence giant foxtail; format: in vivo, Setaria faberii
# Procedure, shortened: as §1
# morningglory = assay: Test B pre/postemergence morningglory; format: in vivo, Ipomoea hederacea
# Procedure, shortened: as §1
# rape = assay: Test B pre/postemergence rape; format: in vivo, Brassica napus
# Procedure, shortened: as §1
# soybean = assay: Test B pre/postemergence soybean; format: in vivo, Glycine max
# Procedure, shortened: as §1
# velvetleaf = assay: Test B pre/postemergence velvetleaf; format: in vivo, Abutilon theophrasti
# Procedure, shortened: as §1
# wheat = assay: Test B pre/postemergence wheat; format: in vivo, Triticum aestivum
# Procedure, shortened: as §1
# wild oat = assay: Test B pre/postemergence wild oat; format: in vivo, Avena fatua
# Procedure, shortened: as §1
# purple nutsedge = assay: Test B pre/postemergence purple nutsedge; format: in vivo, Cyperus rotundus
# Procedure, shortened: as §1
# rice = assay: Test B flood test rice; format: in vivo, Oryza sativa
# Procedure, shortened: (§2)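 Flood test on plants grown to the 2-leaf stage; treated plants kept in greenhouse twelve to sixteen days, then visually rated against controls on a 0 (no effect) to 10 (complete control) scale.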
# smallflower flatsedge = assay: Test B flood test smallflower flatsedge; format: in vivo, Cyperus difformis
# Procedure, shortened: as §2
# duck salad = assay: Test B flood test duck salad; format: in vivo, Heteranthera limosa
# Procedure, shortened: as §2
# [1] = Postemergence, Rate 250 g/ha, scale 0 to 10
# [2] = Postemergence, Rate 500 g/ha, scale of 0 to 10 where 0 is no effect and 10 is complete control
# [3] = Postemergence, Rate 1000 g/ha, scale 0 to 10 (0 no effect, 10 complete control)
# [4] = Preemergence, Rate 125 g/ha, scale of 0 to 10 where 0 is no effect and 10 is complete control
# [5] = Preemergence, Rate 250 g/ha, scale 0 to 10, 0 is no effect, 10 is complete control
# [6] = Preemergence, Rate 500 g/ha, scale 0 to 10, 0 is no effect, 10 is complete control
# [7] = Rate 125 g/ha, Postemergence, scale 0 to 10, 0 is no effect, 10 is complete control
# [8] = Rate 1000 g/ha, Preemergence, scale 0 to 10 (0 no effect, 10 complete control)
# [9] = Pre-emergence, Rate 1000 g/ha, scale 0 to 10 (0 no effect, 10 complete control)
# [10] = Rate 125 g/ha, under heading Pre-emergence, flood test species, visual evaluation after twelve to sixteen days
# [11] = Rate 250 g/ha, Pre-emergence (flood test species), scale 0 to 10, 0 is no effect, 10 is complete control
# [12] = Rate 500 g/ha, Pre-emergence, flood test species, scale 0 to 10 (0 no effect, 10 complete control)
structure (smiles),measurement,setting,value
CCOP(=O)(Cn1c(=O)on(C(=O)N(c2ccccc2)C(C)C)c1=O)OCC [Compound 447],Blackgrass plant response rating,blackgrass; [1],0
same,Blackgrass plant response rating,blackgrass; [2],2
same,Blackgrass plant response rating,blackgrass; [3],7
same,"Plant response rating, Blackgrass",blackgrass; [4],0
same,Blackgrass plant response rating,blackgrass; [5],0
same,Blackgrass plant response rating,blackgrass; [6],0
same,Blackgrass plant response rating,blackgrass; [7],0
same,"Plant response rating, Blackgrass",blackgrass; [8],3
same,B. signalgrass plant response rating,"surinam grass; Postemergence, Rate 250 g/ha, scale 0 to 10, 0 no effect, 10 complete control",0
same,B. signalgrass plant response rating,surinam grass; [2],0
same,B. signalgrass plant response rating,surinam grass; [3],2
same,"Plant response rating, B. signalgrass",surinam grass; [4],0
same,B. signalgrass plant response rating,surinam grass; [5],0
same,B. signalgrass plant response rating,surinam grass; [6],0
same,B. signalgrass plant response rating,surinam grass; [7],0
same,"Plant response rating, B. signalgrass",surinam grass; [8],6
same,Corn plant response rating,corn; [1],0
same,Corn plant response rating,corn; [2],0
same,Corn plant response rating,corn; [3],0
same,"Plant response rating, Corn",corn; [4],0
same,Corn plant response rating,corn; [5],0
same,Corn plant response rating,corn; [6],0
same,Corn plant response rating,corn; [7],0
same,"Plant response rating, Corn",corn; [8],0
same,Crabgrass plant response rating,crabgrass; [1],0
same,Crabgrass plant response rating,crabgrass; [2],0
same,Crabgrass plant response rating,crabgrass; [3],0
same,"Plant response rating, Crabgrass",crabgrass; [4],3
same,Crabgrass plant response rating,crabgrass; [5],8
same,Crabgrass plant response rating,crabgrass; [6],9
same,Crabgrass plant response rating,crabgrass; [7],0
same,"Plant response rating, Crabgrass",crabgrass; [8],9
same,Giant foxtail plant response rating,giant foxtail; [1],0
same,Giant foxtail plant response rating,giant foxtail; [2],0
same,Giant foxtail plant response rating,giant foxtail; [3],0
same,"Plant response rating, Giant foxtail",giant foxtail; [4],3
same,Giant foxtail plant response rating,giant foxtail; [5],7
same,Giant foxtail plant response rating,giant foxtail; [6],8
same,Giant foxtail plant response rating,giant foxtail; [7],0
same,"Plant response rating, Giant foxtail",giant foxtail; [8],10
same,Morningglory plant response rating,morningglory; [1],4
same,Morningglory plant response rating,morningglory; [2],7
same,Morningglory plant response rating,morningglory; [3],10
same,"Plant response rating, Morningglory",morningglory; [4],0
same,Morningglory plant response rating,morningglory; [5],0
same,Morningglory plant response rating,morningglory; [6],0
same,Morningglory plant response rating,morningglory; [7],2
same,"Plant response rating, Morningglory",morningglory; [8],2
same,Rape plant response rating,rape; [1],0
same,Rape plant response rating,rape; [2],0
same,Rape plant response rating,rape; [3],0
same,"Plant response rating, Rape",rape; [4],0
same,Rape plant response rating,rape; [5],0
same,Rape plant response rating,rape; [6],0
same,Rape plant response rating,rape; [7],0
same,"Plant response rating, Rape",rape; [8],0
same,Soybean plant response rating,soybean; [1],2
same,Soybean plant response rating,soybean; [2],4
same,Soybean plant response rating,soybean; [3],6
same,"Plant response rating, Soybean",soybean; [4],0
same,Soybean plant response rating,soybean; [5],0
same,Soybean plant response rating,soybean; [6],0
same,Soybean plant response rating,soybean; [7],1
same,Velvetleaf plant response rating,velvetleaf; [1],0
same,Velvetleaf plant response rating,velvetleaf; [2],0
same,Velvetleaf plant response rating,velvetleaf; [3],0
same,"Plant response rating, Velvetleaf",velvetleaf; [4],0
same,Velvetleaf plant response rating,velvetleaf; [5],0
same,Velvetleaf plant response rating,velvetleaf; [6],0
same,Velvetleaf plant response rating,velvetleaf; [7],0
same,"Plant response rating, Velvetleaf",velvetleaf; [8],0
same,Wheat plant response rating,wheat; [1],0
same,Wheat plant response rating,wheat; [2],0
same,Wheat plant response rating,wheat; [3],0
same,"Plant response rating, Wheat",wheat; [4],0
same,Wheat plant response rating,wheat; [5],0
same,Wheat plant response rating,wheat; [6],0
same,Wheat plant response rating,wheat; [7],0
same,"Plant response rating, Wheat",wheat; [8],0
same,Wild oats plant response rating,wild oat; [1],0
same,Wild oats plant response rating,wild oat; [2],0
same,Wild oats plant response rating,wild oat; [3],0
same,"Plant response rating, Wild oats",wild oat; [4],0
same,Wild oats plant response rating,wild oat; [5],2
same,Wild oats plant response rating,wild oat; [6],7
same,Wild oats plant response rating,wild oat; [7],0
same,"Plant response rating, Wild oats",wild oat; [8],10
same,Nutsedge plant response rating,purple nutsedge; [1],0
same,Nutsedge plant response rating,purple nutsedge; [2],0
same,Nutsedge plant response rating,purple nutsedge; [3],0
same,"Plant response rating, Nutsedge",purple nutsedge; [4],0
same,Nutsedge plant response rating,purple nutsedge; [5],0
same,Nutsedge plant response rating,purple nutsedge; [6],0
same,Nutsedge plant response rating,purple nutsedge; [7],0
same,"Plant response rating, Nutsedge",purple nutsedge; [8],0
same,Rice plant response rating,rice; [9],0
same,"Rice plant response rating (0 to 10 scale, 0 is no effect, 10 is complete control)",rice; [10],0
same,Rice plant response rating,rice; [11],0
same,Rice plant response rating,rice; [12],0
same,S. Flatsedge plant response rating,smallflower flatsedge; [9],0
same,"S. Flatsedge plant response rating (0 to 10 scale, 0 is no effect, 10 is complete control)",smallflower flatsedge; [10],0
same,S. Flatsedge plant response rating,smallflower flatsedge; [11],0
same,S. Flatsedge plant response rating,smallflower flatsedge; [12],0
same,Ducksalad plant response rating,duck salad; [9],0
same,"Ducksalad plant response rating (0 to 10 scale, 0 is no effect, 10 is complete control)",duck salad; [10],0
same,Ducksalad plant response rating,duck salad; [11],0
same,Ducksalad plant response rating,duck salad; [12],0
